From patent US20200360520A1, “USE OF RIFAMYCIN-QUINOLIZIDONE COUPLING MOLECULE” (priority 2019, published 2020)
≈ marks a conversion by molar mass, not a printed value. Like-named read-outs stand apart in the source and are kept apart here.

Key:
Format in all cases: cell-based
[1] = tested on: Mycobacterium abscessus; assay: MBC test (plating on agar, CFU count)
[2] = tested on: Mycodacterium chelonei; assay: MIC by micro broth dilution method (resazurin microtiter assay); settings: MH Culture Medium; Chelonei (standard strain); read-out: Minimum Inhibitory Concentration (MIC)
[3] = tested on: Mycobacterium fortuitum; assay: as above; settings: Mycolicibacterium fortuitum, MH Culture Medium, read-out: Minimum Inhibitory Concentration (MIC)
[4] = tested on: Mycobacterium intracellulare; assay: as above; settings: for MIC: Mycobacterium intracellulare, MH Culture Medium, read-out: Minimum Inhibitory Concentration (MIC)
[5] = tested on: Mycobacterium abscessus; assay: as above; settings: Mycobacteroides abscessus, read-out: Minimum Inhibitory Concentration (MIC)
[6] = tested on: Mycobacterium kansasii; assay: as above; settings: for MIC: Mycobacterium kansasii, read-out: Minimum Inhibitory Concentration (MIC)
[7] = tested on: Mycobacterium avium; assay: MBC test (plating on agar, CFU count); settings: for MBC: Mycobacterium avium, read-out: Minimum Bactericidal Concentration (MBC)
[8] = tested on: Mycobacterium kansasii; assay: MBC test (plating on agar, CFU count); settings: for MBC: Mycobacterium kansasii, read-out: Minimum Bactericidal Concentration (MBC)
[9] = tested on: Mycobacterium avium; assay: MIC by micro broth dilution method (resazurin microtiter assay); settings: read-out: Minimum Inhibitory Concentration (MIC)
[10] = tested on: Mycobacterium massiliense; assay: as above; settings: Mycobacteroides abscessus, MH Culture Medium, read-out: Minimum Inhibitory Concentration (MIC)

Question: What does the source list for `CO[C@H]1/C=C/O[C@@]2(C)Oc3c(C)c(O)c4c(O)c(c(/C=N/N5CCC(N(C)C6([C@@H]7CCN(c8c(F)cn9c(=O)c(C(=O)O)cc(C%10CC%10)c9c8C)C7)CC6)CC5)c(O)c4c3C2=O)NC(=O)/C(C)=C\C=C\[C@H](C)[C@H](O)[C@@H](C)[C@@H](O)[C@@H](C)[C@H](CC(C)=O)[C@@H]1C` [Compound I]?
Answer: Minimum Bactericidal Concentration (MBC) ([1]; MH Culture Medium): 1 µg/mL; MBC ([1]; Mycobacteroides abscessus, 7H9 Culture Medium, read-out: Minimum Bactericidal Concentration (MBC)): 1 µg/mL (≈ 0.831 µM); MIC [2]: 64 µg/mL (≈ 53.2 µM); MIC ([3]; Fortuitum (standard strain)): 64 µg/mL (≈ 53.2 µM); MIC ([3]; clinically isolated strain Fortuitum (S103)): > 64 µg/mL; MIC ([3]; clinically isolated strain Fortuitum (S111)): > 64 µg/mL; MIC ([4]; Intracellulare (standard strain)): 0.5 µg/mL (≈ 0.415 µM); MIC ([4]; clinically isolated strain Intracellulare (S90)): 64 µg/mL (≈ 53.2 µM); MIC ([4]; clinically isolated strain Intracellulare (S261)): 64 µg/mL (≈ 53.2 µM); MIC ([4]; clinically isolated strain Intracellulare (S269)): > 64 µg/mL; MIC ([4]; clinically isolated strain Intracellulare (S290)): 64 µg/mL (≈ 53.2 µM); MIC ([4]; clinically isolated strain Intracellulare (S291)): 64 µg/mL (≈ 53.2 µM); MIC ([4]; clinically isolated strain Intracellulare (S298)): 64 µg/mL (≈ 53.2 µM); MIC ([4]; clinically isolated strain Intracellulare (S541)): 32 µg/mL (≈ 26.6 µM); MIC ([4]; clinically isolated strain Intracellulare (S623)): 64 µg/mL (≈ 53.2 µM); MIC ([4]; clinically isolated strain Intracellulare (ZPS)): 32 µg/mL (≈ 26.6 µM); MIC ([4]; clinically isolated strain intracellulare (S442)): 32 µg/mL (≈ 26.6 µM); activity, in words ([4]; against Mycobacterium intracellulare): weak; MIC ([5]; 7H9 Broth): 1 µg/mL (≈ 0.831 µM); MIC ([5]; MH Broth): 1 µg/mL (≈ 0.831 µM); MIC ([6]; 7H9 Broth): 2 µg/mL (≈ 1.66 µM); MIC ([6]; MH Broth): 2 µg/mL (≈ 1.66 µM); MIC ([6]; MH Culture Medium, Kansasii (standard strain)): 0.0625 µg/mL (≈ 0.0519 µM); MIC ([6]; MH Culture Medium, clinically isolated strain Kansasii (S9)): 0.25 µg/mL (≈ 0.208 µM); MIC ([6]; MH Culture Medium, clinically isolated strain Kansasii (S199)): 0.0625 µg/mL (≈ 0.0519 µM); MIC ([6]; MH Culture Medium, clinically isolated strain Kansasii (S520)): 0.0625 µg/mL (≈ 0.0519 µM); MIC ([6]; MH Culture Medium, clinically isolated strain Kansasii (S609)): 0.0625 µg/mL (≈ 0.0519 µM); activity compared with controls, in words ([6]; against mycobacterium kansasii): much higher than that of rifampicin, ciprofloxacin and metronidazole; MBC ([7]; 7H9 Culture Medium, Mycobacterium avium Rough): > 64 µg/mL; MBC ([7]; 7H9 Culture Medium, Mycobacterium avium Smooth): 16 µg/mL (≈ 13.3 µM); MBC ([7]; MH Culture Medium, Mycobacterium avium Rough): > 64 µg/mL; MBC ([7]; MH Culture Medium, Mycobacterium avium Smooth): 16 µg/mL (≈ 13.3 µM); bactericidal activity (MBC), in words ([7]; against smooth type strain of Mycobacterium avium): had an activity; MBC ([8]; 7H9 Culture Medium): 2 µg/mL (≈ 1.66 µM); MBC ([8]; MH Culture Medium): 2 µg/mL (≈ 1.66 µM); bactericidal activity (MBC) compared with controls, in words ([8]; against mycobacterium kansasii): higher than or much higher than that of all other tested antibiotic drugs; MIC ([9]; 7H9 Broth, Mycobacterium avium Rough): > 64 µg/mL; MIC ([9]; 7H9 Broth, Mycobacterium avium Smooth): 4 µg/mL (≈ 3.32 µM); MIC ([9]; MH Broth, Mycobacterium avium Rough): > 64 µg/mL; MIC ([9]; MH Broth, Mycobacterium avium Smooth): 4 µg/mL (≈ 3.32 µM); MIC ([9]; MH Culture Medium, Avium (standard strain)): 1 µg/mL (≈ 0.831 µM); MIC ([9]; MH Culture Medium, clinically isolated strain Avium (S31)): 0.25 µg/mL (≈ 0.208 µM); MIC ([9]; MH Culture Medium, clinically isolated strain Avium (S123)): 8 µg/mL (≈ 6.65 µM); MIC ([9]; MH Culture Medium, clinically isolated strain Avium (S559)): 0.25 µg/mL (≈ 0.208 µM); MIC ([9]; MH Culture Medium, clinically isolated strain Avium (S568)): 32 µg/mL (≈ 26.6 µM); MIC ([9]; MH Culture Medium, clinically isolated strain Avium (S577)): 0.125 µg/mL (≈ 0.104 µM); MIC ([9]; MH Culture Medium, clinically isolated strain Avium (S597)): > 64 µg/mL; MIC ([9]; MH Culture Medium, clinically isolated strain Avium (S602)): 8 µg/mL (≈ 6.65 µM); MIC ([10]; clinically isolated strain Massiliense (D10)): > 64 µg/mL; MIC ([10]; clinically isolated strain Massiliense (D14)): > 64 µg/mL; MIC ([10]; clinically isolated strain Massiliense (D18)): > 64 µg/mL
